The numbers were not newly measured in US20240041963A1, “A NUTRACEUTICALS FORMULATION WITH AN ENHANCED ORGANOLEPTIC PROPERTIES USED FOR SCALP AND HAIR CARE” (DiaBliss Consumer Products Pvt Ltd, priority 2020, published 2024), which cites them from elsewhere.

Read-outs that look alike come from different tables or passages of the source.

Data set [1] concerns Male Patients with Androgenetic Alopecia. To be noted: 30 men, 5 mg oral; for Hair Density in 1 sq cm area: Day 0 182.5.
Data set [2] shares this test system. To be noted: 30 men, 5 mg oral; for Hair Diameter: Day 0 58.5.
For data set [3], the system named is men with hair loss. To be noted: according to the American Academy of Dermatology.

As for `Nc1cc(N2CCCCC2)nc(N)[n+]1[O-]` [Oral Minoxidil, 2,4-diamino-6-piperidinopyrimidine 3-oxide], the “Hair Density Increase vs Day 0” value in data set [1] (Week 12 (Day 84)) is 14.2%; in data set [1] (Week 24 (Day 168)), 19.2%. Further, the entries for the “Hair Density in 1 sq cm area” value in data set [1] (Week 12 (Day 84)) and in data set [1] (Week 24 (Day 168)) were 208.5 and 217.6, respectively. The “Hair Diameter Increase vs Day 0” value is reported as 10.6% in data set [2] (Week 12 (Day 84)) and 15.2% in data set [2] (Week 24 (Day 168)). For the same compound, the Hair Diameter in data set [2] (Week 12 (Day 84)) was 64.7 µm; in data set [2] (Week 24 (Day 168)) it was 67.4 µm.

As for `CC(C)(C)NC(=O)[C@H]1CC[C@H]2[C@@H]3CC[C@H]4NC(=O)C=C[C@]4(C)[C@H]3CC[C@]12C` [Finasteride], in data set [3], the “men in whom it slows hair loss” value was “about 88%” and the “men in whom it stimulates regrowth” value is “about 66%”.
